# Measurements taken from article PMC10559933 (The Prostate, 2023).
# Several values for one entry are separate records, joined by “and”; a condition that tells them apart may be missing. Equal entries are not always repeated. Where two headings read alike, the source gives them in different places.
# Columns and labels:
# [1] = target: T1, Human Aryl Hydrocarbon Receptor (AHR) (Homo sapiens, UniProt P35869); assay: Cell-based luciferase reporter gene assay driven by AHR-responsive promoter
# T1 sequence (P35869 11-848): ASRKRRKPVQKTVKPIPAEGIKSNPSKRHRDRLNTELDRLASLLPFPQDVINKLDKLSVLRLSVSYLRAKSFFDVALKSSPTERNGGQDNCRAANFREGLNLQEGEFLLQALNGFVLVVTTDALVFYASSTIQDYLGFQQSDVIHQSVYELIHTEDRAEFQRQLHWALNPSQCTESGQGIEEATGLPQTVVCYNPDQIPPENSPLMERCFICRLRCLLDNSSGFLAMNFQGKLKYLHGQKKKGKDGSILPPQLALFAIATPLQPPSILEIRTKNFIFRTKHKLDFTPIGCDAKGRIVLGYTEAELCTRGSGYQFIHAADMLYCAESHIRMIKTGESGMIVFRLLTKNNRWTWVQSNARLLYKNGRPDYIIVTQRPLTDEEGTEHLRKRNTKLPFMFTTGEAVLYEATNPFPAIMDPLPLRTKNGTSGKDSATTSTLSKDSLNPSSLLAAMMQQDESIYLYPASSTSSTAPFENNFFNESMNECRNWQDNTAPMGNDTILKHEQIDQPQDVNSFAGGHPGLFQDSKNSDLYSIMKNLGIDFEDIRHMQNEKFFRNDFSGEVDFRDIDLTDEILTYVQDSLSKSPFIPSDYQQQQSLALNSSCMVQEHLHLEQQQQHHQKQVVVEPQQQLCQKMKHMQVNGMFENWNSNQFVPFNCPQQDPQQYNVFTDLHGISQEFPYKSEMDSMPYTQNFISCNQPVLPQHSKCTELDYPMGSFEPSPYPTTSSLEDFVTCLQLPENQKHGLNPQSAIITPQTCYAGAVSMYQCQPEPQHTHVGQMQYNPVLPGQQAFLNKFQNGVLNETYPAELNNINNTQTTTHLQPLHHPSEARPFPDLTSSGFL
# human AHR = human AHR (Homo sapiens, UniProt P35869); assay: Photo-affinity label; settings: competitive PAL AHR binding assay
# 68 kinases = assay: Targeted kinase screen; format: biochemical; settings: 10 μM
# [2] = Serum pharmacokinetics after oral gavage in mice; format: in vivo
# Water solubility = format: physicochemical
# thymus = assay: AHR agonist induced thymus regression in FVB male mice; format: in vivo
# liver Cyp1a1 = assay: Liver Cyp1a1 induction in mice; format: in vivo
# [3] = tested on: CWR22-RH human prostate cancer PDXs; assay: In vivo growth of CWR22-RH PDX in castrate NSG mice; design: species or system human xenograft in NSG mice
# nuclear MEF2/HDAC4/NCoR1 = nuclear MEF2/HDAC4/NCoR1 (Homo sapiens, UniProt P56524); assay: Nuclear NCoR1 immunoprecipitated with MEF-2 in CWR-22Rv1 cells under hypoxia; format: cell-based; settings: discussion summary
# fl-NCoR1 protein = fl-NCoR1 protein (Homo sapiens, UniProt O75376); assay: SPR: TasQ in solution binding to immobilized fl-NCoR1
# fl-wild-type HDAC4 = fl-wild-type HDAC4 (Homo sapiens, UniProt P56524); assay: SPR competition: TasQ in solution vs immobilized TasQ for fl-wild-type HDAC4; format: binding
# [4] = tested on: LvCaP-3 human prostate cancer PDXs; assay: In vivo growth of LvCaP-3 PDX in castrate mice; design: species or system human xenograft in mice; settings: oral 10 mg/kg/d, alone or in combination with B(a)P
# LNCaP cells = assay: In vitro growth of LNCaP parental vs HDAC4 KD cells, normoxia vs hypoxia; format: cell-based, human; settings: TasQ 10 μM
# CWR22-RH PDXs = assay: RNA sequencing of in vivo growing CWR22-RH PDX; design: species or system human xenograft in mice; settings: oral 10 mg/kg/d vs vehicle, castrate hosts
# [5] = tested on: human umbilical vein endothelial cells (HUVECs); assay: Three dimensional; format: cell-based; settings: CM-supplemented 3D cultures, 10 μM
# HIF-1α protein = settings: daily oral 10 mg/kg/d; cited from earlier work
# [6] = target: fl-R681A/R798A double mutant HDAC4 protein (Homo sapiens, UniProt P56524, R681A/R798A); assay: SPR competition: TasQ in solution vs immobilized TasQ for mutant HDAC4; format: binding
# CWR-22Rv1 xenografts = format: in vivo, human xenograft in mice; settings: oral 10 mg/kg/d
# [7] = tested on: prostate cancer xenografts; settings: oral 10 mg/kg/d, cited from earlier work
# [8] = tested on: metastatic castration-resistant prostate cancer (mCRPC); settings: cited from earlier work
# [9] = cited from earlier work
# fl-HDAC4 = fl-HDAC4 (Homo sapiens, UniProt P56524); assay: HDAC4 enzymatic assay with Lys; format: biochemical; settings: Lys(TFA)-AMC substrate
# [10] = cited from earlier work; remark: listed apart in the source
# [11] = tested on: prostate cancer xenografts; settings: cited from earlier work
# [12] = phase 1B, TasQ combined with cabazitaxel, RECIST
# fl-HDAC4, sequence (P56524 whole entry): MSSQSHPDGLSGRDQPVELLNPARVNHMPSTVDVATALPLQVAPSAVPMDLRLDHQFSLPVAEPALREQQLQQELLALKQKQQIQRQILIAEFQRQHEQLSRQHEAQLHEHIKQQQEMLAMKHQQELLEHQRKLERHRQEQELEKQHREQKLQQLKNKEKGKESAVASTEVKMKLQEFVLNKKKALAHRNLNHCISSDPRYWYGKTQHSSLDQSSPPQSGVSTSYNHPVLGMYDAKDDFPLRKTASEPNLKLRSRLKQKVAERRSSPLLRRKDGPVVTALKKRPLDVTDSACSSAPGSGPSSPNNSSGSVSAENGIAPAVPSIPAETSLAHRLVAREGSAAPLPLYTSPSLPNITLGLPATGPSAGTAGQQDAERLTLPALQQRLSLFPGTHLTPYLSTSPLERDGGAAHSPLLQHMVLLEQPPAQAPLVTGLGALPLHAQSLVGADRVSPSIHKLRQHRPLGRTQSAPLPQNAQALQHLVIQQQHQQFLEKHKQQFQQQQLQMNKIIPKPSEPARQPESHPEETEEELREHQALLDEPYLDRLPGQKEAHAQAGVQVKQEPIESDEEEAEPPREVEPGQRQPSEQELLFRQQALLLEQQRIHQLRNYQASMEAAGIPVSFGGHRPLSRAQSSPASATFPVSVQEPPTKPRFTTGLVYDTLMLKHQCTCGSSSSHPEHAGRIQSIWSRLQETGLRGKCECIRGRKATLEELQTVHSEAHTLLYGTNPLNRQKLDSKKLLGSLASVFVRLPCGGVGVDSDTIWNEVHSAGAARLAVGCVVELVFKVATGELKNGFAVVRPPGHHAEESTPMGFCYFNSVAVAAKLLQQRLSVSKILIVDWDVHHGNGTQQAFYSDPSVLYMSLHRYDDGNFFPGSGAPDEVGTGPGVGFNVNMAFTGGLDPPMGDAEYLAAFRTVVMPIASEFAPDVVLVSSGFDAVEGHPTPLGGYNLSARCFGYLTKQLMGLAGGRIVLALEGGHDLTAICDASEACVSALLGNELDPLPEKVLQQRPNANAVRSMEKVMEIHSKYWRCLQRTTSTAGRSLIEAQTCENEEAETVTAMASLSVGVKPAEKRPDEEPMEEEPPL
# fl-R681A/R798A double mutant HDAC4 protein, sequence (P56524 whole entry R681A/R798A): as the sequence (P56524 whole entry) above, with R681A, R798A counted along it
# fl-NCoR1 protein, sequence (O75376 whole entry): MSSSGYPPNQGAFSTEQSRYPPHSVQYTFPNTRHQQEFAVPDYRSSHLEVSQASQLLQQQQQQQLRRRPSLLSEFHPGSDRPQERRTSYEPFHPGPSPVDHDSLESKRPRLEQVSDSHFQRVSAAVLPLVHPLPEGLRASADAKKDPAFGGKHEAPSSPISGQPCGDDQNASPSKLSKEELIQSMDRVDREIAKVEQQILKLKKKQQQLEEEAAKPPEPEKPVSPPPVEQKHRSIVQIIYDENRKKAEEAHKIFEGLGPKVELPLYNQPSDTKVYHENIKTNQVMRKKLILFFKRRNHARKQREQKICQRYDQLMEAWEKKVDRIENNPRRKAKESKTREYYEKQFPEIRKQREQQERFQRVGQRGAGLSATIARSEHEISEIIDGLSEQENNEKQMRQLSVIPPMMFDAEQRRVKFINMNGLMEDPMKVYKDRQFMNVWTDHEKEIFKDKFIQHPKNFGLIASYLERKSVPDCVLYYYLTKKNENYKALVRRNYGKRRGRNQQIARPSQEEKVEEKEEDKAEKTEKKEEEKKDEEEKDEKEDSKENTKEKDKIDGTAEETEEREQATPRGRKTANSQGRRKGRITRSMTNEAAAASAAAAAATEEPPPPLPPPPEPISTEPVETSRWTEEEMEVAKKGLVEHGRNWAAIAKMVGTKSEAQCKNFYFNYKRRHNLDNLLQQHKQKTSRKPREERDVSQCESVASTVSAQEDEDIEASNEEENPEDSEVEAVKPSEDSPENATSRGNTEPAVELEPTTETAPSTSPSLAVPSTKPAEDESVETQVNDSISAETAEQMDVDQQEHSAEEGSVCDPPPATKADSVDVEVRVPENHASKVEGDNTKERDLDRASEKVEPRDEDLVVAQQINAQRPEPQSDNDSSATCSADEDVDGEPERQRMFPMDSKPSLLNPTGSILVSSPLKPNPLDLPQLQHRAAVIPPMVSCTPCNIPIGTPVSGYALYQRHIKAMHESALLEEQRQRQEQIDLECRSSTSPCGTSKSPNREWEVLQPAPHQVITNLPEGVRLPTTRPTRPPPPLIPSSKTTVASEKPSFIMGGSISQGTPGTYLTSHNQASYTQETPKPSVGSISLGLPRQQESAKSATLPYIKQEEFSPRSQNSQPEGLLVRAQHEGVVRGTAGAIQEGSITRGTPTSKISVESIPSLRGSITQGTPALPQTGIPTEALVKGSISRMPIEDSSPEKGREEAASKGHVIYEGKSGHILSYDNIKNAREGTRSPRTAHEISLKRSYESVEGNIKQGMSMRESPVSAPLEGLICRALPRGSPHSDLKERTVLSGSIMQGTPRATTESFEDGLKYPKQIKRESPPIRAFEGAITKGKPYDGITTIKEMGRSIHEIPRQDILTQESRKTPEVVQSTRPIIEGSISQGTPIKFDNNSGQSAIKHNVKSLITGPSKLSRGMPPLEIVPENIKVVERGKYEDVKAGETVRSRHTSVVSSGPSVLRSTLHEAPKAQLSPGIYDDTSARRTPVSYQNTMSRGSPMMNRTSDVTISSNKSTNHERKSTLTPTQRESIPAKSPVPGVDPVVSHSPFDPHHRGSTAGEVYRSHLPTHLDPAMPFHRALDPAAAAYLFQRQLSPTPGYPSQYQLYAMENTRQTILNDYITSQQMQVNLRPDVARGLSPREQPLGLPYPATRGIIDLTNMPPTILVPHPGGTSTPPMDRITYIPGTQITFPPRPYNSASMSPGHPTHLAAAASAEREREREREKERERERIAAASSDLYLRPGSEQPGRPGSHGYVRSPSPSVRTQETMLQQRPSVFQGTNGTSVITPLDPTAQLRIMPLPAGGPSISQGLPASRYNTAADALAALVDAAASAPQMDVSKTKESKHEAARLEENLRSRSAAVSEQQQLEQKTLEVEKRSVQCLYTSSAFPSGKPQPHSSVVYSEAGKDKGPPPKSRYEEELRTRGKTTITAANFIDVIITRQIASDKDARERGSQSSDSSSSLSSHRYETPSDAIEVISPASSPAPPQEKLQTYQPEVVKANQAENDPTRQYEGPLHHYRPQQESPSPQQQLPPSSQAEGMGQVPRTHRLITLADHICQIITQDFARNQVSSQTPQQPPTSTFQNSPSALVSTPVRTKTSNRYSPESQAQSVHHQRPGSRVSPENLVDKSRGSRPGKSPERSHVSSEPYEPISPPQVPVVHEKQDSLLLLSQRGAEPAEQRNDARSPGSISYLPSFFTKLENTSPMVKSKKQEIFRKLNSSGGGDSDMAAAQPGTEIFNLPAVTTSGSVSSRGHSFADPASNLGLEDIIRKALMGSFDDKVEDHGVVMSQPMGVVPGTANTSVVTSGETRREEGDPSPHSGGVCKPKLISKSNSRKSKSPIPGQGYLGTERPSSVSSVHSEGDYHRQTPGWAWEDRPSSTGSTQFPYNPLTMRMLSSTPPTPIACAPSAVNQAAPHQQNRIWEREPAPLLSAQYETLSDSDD
# fl-wild-type HDAC4, sequence (P56524 whole entry): as the sequence (P56524 whole entry) above
# nuclear MEF2/HDAC4/NCoR1, sequence (P56524 whole entry): as above
smiles,measurement,setting,value
COc1cccc2c1c(O)c(C(=O)N(c1ccc(C(F)(F)F)cc1)C1CCCCC1)c(=O)n2C [ESATA-20],fold lower AHR agonism than TasQ,[1]; cell-based AHR-promoter assay,10 fold and ~ 10 fold
same,EC50,"[1]; read-out: AHR agonist EC50, human cell-based luciferase reporter",10000 nM
same,fold lower binding affinity than TasQ,human AHR,10 fold
same,change in activity in any of the 68 kinases,68 kinases,< 15%
same,fold lower bioavailability than TasQ,"[2]; 10 mg/kg oral, DMSO/HPCD vehicle",5.5 fold
same,alpha half-life for tissue distribution,"[2]; mouse, in vivo",3 h
same,beta half-life for serum elimination,"[2]; mouse, in vivo",10 to 12 h
same,drug bound to serum proteins,"[2]; mouse, in vivo",> 98%
same,water solubility,Water solubility,less water soluble than TasQ
same,thymus regression,"thymus; oral, even at 30 mg/kg/d",lack of induction
same,induction of liver Cyp1a1,"liver Cyp1a1; oral, even at 30 mg/kg/d",lack of induction
same,anti-cancer efficacy,[3]; 10 mg/kg/d oral,same significant maximal anti-cancer efficacy as TasQ
same,serum concentration at which maximal anti-prostate cancer efficacy is produced,[3]; in vivo,< 2 µM
same,fold more potent HDAC4 inhibitor (vs TasQ),nuclear MEF2/HDAC4/NCoR1,≥ 5 fold
"COc1cccc2c1c(O)c(C(=O)N(C)c1ccc(C(F)(F)F)cc1)c(=O)n2C [TasQ, 4-hydroxy-5-methoxy-N,1-dimethyl-2-oxo-N-[(4-trifluoromethyl)phenyl]-1,2-dihydroquinoline-3-caboxamide]",EC50,[1],1000 nM
same,binding to immobilized fl-NCoR1,fl-NCoR1 protein,no detectable binding
same,EC50,fl-wild-type HDAC4,1000 nM
same,inhibition of growth at end of study (fraction),[4],~ 2/3
same,effect on cells,LNCaP cells,the cells die
same,"AGR2, AHR Target Genes (Fold Increases by TasQ)",CWR22-RH PDXs,5.5 fold
same,"AHR, AHR Target Genes (Fold Increases by TasQ)",CWR22-RH PDXs,3.0 fold
same,"ALDOC, HIF-1a Target Genes (Fold Decrease by TasQ)",CWR22-RH PDXs,−1.4 fold
same,"AR, AR Target Genes (Fold Decrease by TasQ)",CWR22-RH PDXs,−2.0 fold
same,"BNIP3, HIF-1a Target Genes (Fold Decrease by TasQ)",CWR22-RH PDXs,−1.9 fold
same,"CDC6, Proliferation Target Genes (Fold Decrease by TasQ)",CWR22-RH PDXs,−1.5 fold
same,"CDT1, Proliferation Target Genes (Fold Decrease by TasQ)",CWR22-RH PDXs,−2.2 fold
same,"CYP1B1, AHR Target Genes (Fold Increases by TasQ)",CWR22-RH PDXs,10.0 fold
same,"DTYMK, Proliferation Target Genes (Fold Decrease by TasQ)",CWR22-RH PDXs,−1.6 fold
same,"E2F1, Proliferation Target Genes (Fold Decrease by TasQ)",CWR22-RH PDXs,−2.0 fold
same,"GDF15, AHR Target Genes (Fold Increases by TasQ)",CWR22-RH PDXs,2.3 fold
same,"HILPDA, HIF-1a Target Genes (Fold Decrease by TasQ)",CWR22-RH PDXs,−1.7 fold
same,"IGF1, HIF-1a Target Genes (Fold Decrease by TasQ)",CWR22-RH PDXs,−11.0 fold
same,"IGFBP2, HIF-1a Target Genes (Fold Decrease by TasQ)",CWR22-RH PDXs,−1.8 fold
same,"IGFBP5, HIF-1a Target Genes (Fold Decrease by TasQ)",CWR22-RH PDXs,−18.0 fold
same,"KLKP1, AR Target Genes (Fold Decrease by TasQ)",CWR22-RH PDXs,−2.3 fold
same,"LDHA, HIF-1a Target Genes (Fold Decrease by TasQ)",CWR22-RH PDXs,−1.5 fold
same,"LOX, HIF-1a Target Genes (Fold Decrease by TasQ)",CWR22-RH PDXs,−4.0 fold
same,"MCM2, Proliferation Target Genes (Fold Decrease by TasQ)",CWR22-RH PDXs,−1.9 fold
same,"MCM3, Proliferation Target Genes (Fold Decrease by TasQ)",CWR22-RH PDXs,−1.6 fold
same,"MCM5, Proliferation Target Genes (Fold Decrease by TasQ)",CWR22-RH PDXs,−2.0 fold
same,"MKI67, Proliferation Target Genes (Fold Decrease by TasQ)",CWR22-RH PDXs,−1.7 fold
same,"NKX3.1, AR Target Genes (Fold Decrease by TasQ)",CWR22-RH PDXs,−2.3 fold
same,"NQOI, AHR Target Genes (Fold Increases by TasQ)",CWR22-RH PDXs,2.9 fold
same,"P4HA1, HIF-1a Target Genes (Fold Decrease by TasQ)",CWR22-RH PDXs,−1.8 fold
same,"PDK1, HIF-1a Target Genes (Fold Decrease by TasQ)",CWR22-RH PDXs,−1.7 fold
same,"PTN, HIF-1a Target Genes (Fold Decrease by TasQ)",CWR22-RH PDXs,−6.1 fold
same,"SLC45A3, AR Target Genes (Fold Decrease by TasQ)",CWR22-RH PDXs,−3.7 fold
same,"TIPARP, AHR Target Genes (Fold Increases by TasQ)",CWR22-RH PDXs,3.4 fold
same,"TMPRSS2, AR Target Genes (Fold Decrease by TasQ)",CWR22-RH PDXs,−1.9 fold
same,"TNC, HIF-1a Target Genes (Fold Decrease by TasQ)",CWR22-RH PDXs,−2.5 fold
same,"TTR, HIF-1a Target Genes (Fold Decrease by TasQ)",CWR22-RH PDXs,−3.8 fold
same,"VEGFB, HIF-1a Target Genes (Fold Decrease by TasQ)",CWR22-RH PDXs,−1.5 fold
same,"BHLHE41, MEF-2 Target Genes (Fold Decrease by TasQ)",CWR22-RH PDXs; section title: upregulation,2.9 fold
same,"CA12, MEF-2 Target Genes (Fold Decrease by TasQ)",CWR22-RH PDXs; section title: upregulation,2.7 fold
same,"CAPN2, MEF-2 Target Genes (Fold Decrease by TasQ)",CWR22-RH PDXs; section title: upregulation,1.6 fold
same,"CEACAM1, MEF-2 Target Genes (Fold Decrease by TasQ)",CWR22-RH PDXs; section title: upregulation,1.8 fold
same,"EDN1, MEF-2 Target Genes (Fold Decrease by TasQ)",CWR22-RH PDXs; section title: upregulation,15.0 fold
same,"NR4A1, MEF-2 Target Genes (Fold Decrease by TasQ)",CWR22-RH PDXs; section title: upregulation,1.4 fold
same,"NR4A2, MEF-2 Target Genes (Fold Decrease by TasQ)",CWR22-RH PDXs; section title: upregulation,1.8 fold
same,"S100P, MEF-2 Target Genes (Fold Decrease by TasQ)",CWR22-RH PDXs; section title: upregulation,5.7 fold
same,"THB5, MEF-2 Target Genes (Fold Decrease by TasQ)",CWR22-RH PDXs; section title: upregulation,8.0 fold
same,sprouting,[5],sprouting prevented
same,lowering of HIF-1α protein in tumors,HIF-1α protein,> 50%
same,displacement of mutant HDAC4 from immobilized TasQ,[6],not competitively displaced
same,growth inhibition,CWR-22Rv1 xenografts; dominant-positive mutant HIF-1α tumors,< 25%
same,growth inhibition,CWR-22Rv1 xenografts; wild type cells,> 80%
same,thymus weight,"thymus; oral 10 mg/kg/d for 14 days, vehicle 72 +/− 3 (>70)",41.6 ± 6 mg
same,pO2 in the TME,[7]; lowered from >3 mmHg,1.4 +/− 1.0 mmHg
same,enhancement of hypoxia,[7],> 2 fold
same,induction of liver Cyp1a1,"liver Cyp1a1; oral 10 mg/kg, alone and in combination with B(a)P",> 50 fold
same,patients with complete or partial response (CR/PR),[8]; [12],12%
same,patients with stable disease,[8]; [12],48%
same,overall survival (OS),"[8]; phase III, 1 mg/day",not significantly enhanced
same,reduction of risk of radiographic progression or death vs. placebo,"[8]; phase III, daily oral",36%
same,improvement of median progression-free survival (PFS),"[8]; randomized phase II, mCRPC progressing on ADT",4.3 months
same,serum nadir,"[9]; oral 5 mg/kg/d, at 24 hrs",1.08 ± 0.21 µM
same,blood concentration maintained,[9]; oral 10 mg/kg/d,> 1000 nM
same,effect on enzymatic activity,fl-HDAC4,did not inhibit
same,plasma concentration maintained,[10]; 0.5 mg/d,230 ± 30 nM
same,steady-state plasma level,[10]; 1 mg/day,0.42 ± 0.05 µM
same,MTD when combined with cabazitaxel and prednisone,[10]; phase 1B,0.5 mg/day
same,maximum tolerated dose (MTD),"[10]; phase I, oral, after dose escalation over 4–6 weeks",1 mg/day
same,dose-limiting toxicity,[10]; phase I,sinus tachycardia and asymptomatic elevation in amylase
same,fold more potent compared to Linomide,[11]; based on serum drug level,≥ 100 fold
same,daily oral dosing required in mice,[11],> 5 mg/kg/day
same,fold increase in anti-tumor efficacy compared to Linomide,[11],> 25 fold
same,daily oral dosing required for maximal therapeutic activity,[11]; preclinical,≥ 5 mg/kg
same,serum concentration to be maintained for maximal therapeutic activity,[11]; preclinical,> 2 µM
same,oral daily dose giving maximal significant growth inhibition,"[3]; castrate NSG mice, 3-week treatment",≥ 5 mg/kg/day
O=C(c1ccc(C(=O)C(F)(F)F)s1)N1CCn2c(-c3ccccc3)cnc2C1 [TFT-PIP],effect on enzymatic activity,fl-HDAC4,inhibited
